Reference: patent US10995359B2, “Method for determining drug-sensitive human cell lines by analysis method in which measurement of activity of two types of protein kinase is used” (NITTO BOSEKI CO., LTD., priority 2015, dated 2021)
Where two headings read alike, the source gives them in different places.

What was measured:
MDA-MB-231 derived tumor = test: Test of suppressing tumor growth by drug administration using tumor-bearing mice; format: in vivo, nude mice; conditions: MDA-MB-231 derived tumor-bearing mice; 0.3 mg/kg orally once-daily for 14 days
Method: (§1) A cultured triple negative breast cancer cell line was injected under the skin of nude mice to create cancer-bearing mice, and a tumor tissue was established and a PI3K inhibitor and an MEK inhibitor were then administered. Tumor volumes were measured to observe an anti-tumor effect. The method for preparing a tumor-bearing mice and the administration route are as follows.
(§2) The cell lines of MDA-MB-231, HCC70 and SUM185PE were cultured by the above-described method, and after release with trypsin, the cells was suspended with Matrigel basement membrane matrix (manufactured by Corning Incorporated) to about 7×10^6 cells/mL to prepare a cell suspension. Using a 27 gauge syringe, 0.1 mL of cell suspension was injected under the skin of 5-week old female nude mice (manufactured by CLEA Japan, Inc.) to prepare tumor-bearing mice.
(§3) Trametinib, an MEK inhibitor, and wortmannin, a PI3K inhibitor, were each dissolved in PBS with 1% dimethylsulfoxide (DMSO) to 0.3 mg/kg to obtain a drug solution. In addition, PBS with 1% DMSO was used as a control.
(§4) Individuals whose tumor volume reached 300 mm^3 were randomly divided into 3 groups and administration was initiated. As an administration route, a drug solution was orally administered once-daily for 14 days and the tumor volume was observed. The tumor volume was calculated by major axis×(minor axis)^2/2.
(§5) FIGS. 33 to 35 show the results of the test of suppressing tumor growth by each inhibitor using the number of individuals N=6 in each group (Control group, Trametinib-administered group and Wortmannin-administered group) (FIG. 33: MDA-MB-231 derived tumor-bearing mice, FIG. 34: HCC70 derived tumor-bearing mice, and FIG. 35: SUM185PE derived tumor-bearing mice). […] Mann-Whitney U test was used as the test method.

SUM185PE derived tumor = test: as above; format: in vivo, nude mice; conditions: 0.3 mg/kg orally once-daily for 14 days
Method: as §1, §2, §3, §4, §5

HCC70 derived tumor = test: as above; format: in vivo, nude mice; conditions: 0.3 mg/kg orally once-daily for 14 days
Method: as §1, §2, §3, §4, §5

HCC1143 (BL1) cells = test: Drug sensitivity assay (cell growth test), sulforhodamine B; format: cell-based; conditions: Homo sapiens, 72 hours; for inhibition at 0.1 µM: HCC1143, 100 nM, index 12.5% growth inhibition rate; for inhibition at 1 µM: HCC1143, 1 μM, index 25% growth inhibition rate; for inhibition at 10 µM: HCC1143, 10 μM, index 50% growth inhibition rate
Method: (§6) Cultured cells were treated with a MEK inhibitor and a PI3K inhibitor in various concentrations, and cell lines sensitive to MEK and PI3K were classified by calculating a cell growth inhibition rate. The culture method and analysis method are as follows.
(§7) Thirteen types of cells used in the present study, HCC38 (BL1), MDA-MB-231 (MSL), DU4475 (IM), HCC1187 (IM), HCC1143 (BL1), HCC1395 (LAR), HCC1937 (BL1), MDA-MB-453 (LAR), HCC70 (BL2), HS578T (MSL), MDA-MB-157 (MSL) and MDA-MB-468 (BL1), were obtained from American type culture collection (ATCC), and SUM185PE (LAR) was obtained from ASTERAND BIOSCIENCE. All the cells belong to triple negative breast cancer (TNBC), and it is known which of six types (BL1, BL2, M, MSL, IM and LAR) these belong to by an existing classification method.
(§8) All the cells were cultured in a medium designated from a source of supply, and 2 mM L-glutamine and 10% fetal bovine serum (FBS) were supplemented.
(§9) Each type of cells was seeded in a 96 well titer plate at 1×10^4 cells/well, and trametinib, an MEK inhibitor (Medchem Express; 0.08, 0.16, 0.31, 0.63, 1.25, 2.5, 5, 10 and 20 μM), and wortmannin, a PI3K inhibitor (Wako Pure Chemical Industries, Ltd.; 0.08, 0.16, 0.31, 0.63, 1.25, 2.5, 5, 10 and 20 μM) were dissolved in Dimethyl Sulfoxide [DMSO] (Wako Pure Chemical Industries, Ltd.) in various concentrations and treated. In addition, the effect on cell growth was examined at 72 hours after the inhibitor by sulforhodamine B assay (manufactured by SIGMA-ALDRICH), and 50 μL of sulforhodamine B solution was added to each well and cells were left at room temperature for an hour for staining. The staining degree of metabolically survival cells was examined by monitoring absorbance at a wavelength of 565 nm using a microtiter plate. The absorbance of cells which were not treated with trametinib and wortmannin (treated with DMSO) was used as a control and defined as 100% to calculate a cell growth inhibition rate.
(§10) The cell lines were classified into 4 types, cell lines sensitive to wortmannin (hereinafter, PA), cell lines sensitive to trametinib (hereinafter, MA), cell lines resistant to wortmannin and trametinib (hereinafter, R), and others (hereinafter, S). In the classification, first the inhibition rate of each drug was calculated in a concentration of 1 μM, and the inhibition rate (%) by trametinib and the inhibition rate (%) by wortmannin were plotted on the X axis and Y axis respectively on a graph.
as §10, with “100 nM,” for “1 μM,”
as §10, with “10” for “1”, “graph. Using a 50% growth inhibition rate as an index of the inhibitive effect of a drug, cells were classified into 4 types by grid analysis.” for “graph.”

HCC1187 (IM) cells = test: as above; format: cell-based; conditions: Homo sapiens, 72 hours; for inhibition at 0.1 µM: HCC1187, 100 nM, index 12.5% growth inhibition rate; for inhibition at 1 µM: HCC1187, 1 μM, index 25% growth inhibition rate; for inhibition at 10 µM: HCC1187, 10 μM, index 50% growth inhibition rate
Method: as §6, §7, §8, §9, §10
as §10, with “100 nM,” for “1 μM,”
as §10, with “10” for “1”, “graph. Using a 50% growth inhibition rate as an index of the inhibitive effect of a drug, cells were classified into 4 types by grid analysis.” for “graph.”

DU4475 (IM) cells = test: as above; format: cell-based; conditions: Homo sapiens, DU-4475, 72 hours; for inhibition at 0.1 µM: DU4475, 100 nM, index 12.5% growth inhibition rate; for inhibition at 1 µM: DU4475, 1 μM, index 25% growth inhibition rate; for inhibition at 10 µM: DU4475, 10 μM, index 50% growth inhibition rate
Method: as §6, §7, §8, §9, §10
as §10, with “100 nM,” for “1 μM,”
as §10, with “10” for “1”, “graph. Using a 50% growth inhibition rate as an index of the inhibitive effect of a drug, cells were classified into 4 types by grid analysis.” for “graph.”

MDA-MB-453 (LAR) cells = test: as above; format: cell-based; conditions: Homo sapiens, 72 hours; for inhibition at 0.1 µM: MDA-MB-453, 100 nM, index 12.5% growth inhibition rate; for inhibition at 1 µM: MDA-MB-453, 1 μM, index 25% growth inhibition rate; for inhibition at 10 µM: MDA-MB-453, 10 μM, index 50% growth inhibition rate
Method: as §6, §7, §8, §9, §10
as §10, with “100 nM,” for “1 μM,”
as §10, with “10” for “1”, “graph. Using a 50% growth inhibition rate as an index of the inhibitive effect of a drug, cells were classified into 4 types by grid analysis.” for “graph.”

[1] = read-out: inhibition rate (%) by trametinib, classification by grid analysis
[2] = read-out: inhibition rate (%) by wortmannin, classification by grid analysis

## CC(=O)Nc1cccc(-n2c(=O)n(C3CC3)c(=O)c3c(Nc4ccc(I)cc4F)n(C)c(=O)c(C)c32)c1 [trametinib]
MDA-MB-231 derived tumor
  suppression of tumor growth (in words): significantly suppressed
SUM185PE derived tumor
  suppression of tumor growth (in words): a significant growth suppressive effect was not obtained
HCC70 derived tumor
  suppression of tumor growth (in words): a significant growth suppressive effect was observed
HCC1143 (BL1) cells; [1]
  inhibition at 0.1 µM: > 12.5%
  inhibition at 1 µM: > 25%
  inhibition at 10 µM: > 50%
HCC1187 (IM) cells; [1]
  inhibition at 0.1 µM: > 12.5%
  inhibition at 1 µM: > 25%
  inhibition at 10 µM: > 50%
DU4475 (IM) cells; [1]
  inhibition at 0.1 µM: > 12.5%
  inhibition at 1 µM: > 25%
  inhibition at 10 µM: > 50%
MDA-MB-453 (LAR) cells; [1]
  inhibition at 0.1 µM: > 12.5%
  inhibition at 1 µM: > 25%
  inhibition at 10 µM: > 50%

## COC[C@H]1OC(=O)c2coc3c2[C@@]1(C)C1=C(C3=O)[C@@H]2CCC(=O)[C@@]2(C)C[C@H]1OC(C)=O [wortmannin, Wortmannin]
MDA-MB-231 derived tumor
  suppression of tumor growth (in words): a significant suppressive effect was not obtained
SUM185PE derived tumor
  suppression of tumor growth (in words): significantly suppressed
HCC70 derived tumor
  suppression of tumor growth (in words): a significant growth suppressive effect was observed
HCC1143 (BL1) cells; [2]
  inhibition at 0.1 µM: < 12.5%
  inhibition at 1 µM: < 25%
  inhibition at 10 µM: < 50%
HCC1187 (IM) cells; [2]
  inhibition at 0.1 µM: < 12.5%
  inhibition at 1 µM: < 25%
  inhibition at 10 µM: < 50%
DU4475 (IM) cells; [2]
  inhibition at 0.1 µM: < 12.5%
  inhibition at 1 µM: < 25%
  inhibition at 10 µM: < 50%
MDA-MB-453 (LAR) cells; [2]
  inhibition at 0.1 µM: > 12.5%
  inhibition at 1 µM: > 25%
  inhibition at 10 µM: > 50%
